The test system of one data set is Hs746T. Put plainly: cells. The following applies: Homo sapiens, 120 h.
The target of data set [1] is Hepatocyte growth factor receptor (Homo sapiens, UniProt P08581). Kind of data set: Inhibition of N-terminal His/SUMO tagged wild type human c-Met (1038 to 1346 residues) transfected in Escherichia coli using Tyr06 peptide as substrate incubated for 1 hr in presence of ATP by FRET-based Z'-Lyte assay.
For data set [2], the target named is T1, Tyrosine-protein kinase receptor UFO (Homo sapiens, UniProt P30530).
T1 sequence (P30530 whole entry): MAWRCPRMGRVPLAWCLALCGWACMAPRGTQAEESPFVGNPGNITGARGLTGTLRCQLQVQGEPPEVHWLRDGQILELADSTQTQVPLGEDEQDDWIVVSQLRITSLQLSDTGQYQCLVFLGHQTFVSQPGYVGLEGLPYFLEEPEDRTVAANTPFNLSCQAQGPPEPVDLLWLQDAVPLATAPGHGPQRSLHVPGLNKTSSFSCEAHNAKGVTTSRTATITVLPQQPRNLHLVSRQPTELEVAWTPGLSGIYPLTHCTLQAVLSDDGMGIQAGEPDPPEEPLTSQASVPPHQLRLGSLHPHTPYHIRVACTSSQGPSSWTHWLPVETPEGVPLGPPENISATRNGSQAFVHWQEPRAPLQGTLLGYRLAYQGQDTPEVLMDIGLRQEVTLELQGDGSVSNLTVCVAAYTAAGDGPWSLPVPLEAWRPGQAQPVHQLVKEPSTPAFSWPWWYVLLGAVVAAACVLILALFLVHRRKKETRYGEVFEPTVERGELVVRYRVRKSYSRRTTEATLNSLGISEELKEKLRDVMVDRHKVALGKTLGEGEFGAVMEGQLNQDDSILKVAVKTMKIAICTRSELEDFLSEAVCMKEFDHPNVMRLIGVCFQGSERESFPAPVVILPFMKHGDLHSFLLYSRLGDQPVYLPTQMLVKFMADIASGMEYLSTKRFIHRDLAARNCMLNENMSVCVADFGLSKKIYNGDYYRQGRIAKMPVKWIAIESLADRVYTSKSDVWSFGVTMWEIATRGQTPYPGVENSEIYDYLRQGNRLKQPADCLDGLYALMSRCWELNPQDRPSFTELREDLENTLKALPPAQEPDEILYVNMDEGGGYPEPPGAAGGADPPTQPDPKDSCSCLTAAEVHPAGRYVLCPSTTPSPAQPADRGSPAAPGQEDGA
Kind of data set: Inhibition of AXL (unknown origin).

A short description of data set [3]: Apparent permeability across apical to basolateral side in human Caco-2 cells at 10 uM incubated for 120 mins by LC-MS/MS analysis. Format: ADME, cell-based. Background: Caco-2 monolayers are a common model of the intestinal barrier.

49 molecules from ChEMBL document CHEMBL5096238 (J Med Chem, 2022) can be followed below.

Each structure is given as a SMILES string. pIC50: −log10 of the molar value. A value given as a limit tells only on which side of the number the result lay.

Sequence of Hepatocyte growth factor receptor (P08581 whole entry, the tested form may be a part): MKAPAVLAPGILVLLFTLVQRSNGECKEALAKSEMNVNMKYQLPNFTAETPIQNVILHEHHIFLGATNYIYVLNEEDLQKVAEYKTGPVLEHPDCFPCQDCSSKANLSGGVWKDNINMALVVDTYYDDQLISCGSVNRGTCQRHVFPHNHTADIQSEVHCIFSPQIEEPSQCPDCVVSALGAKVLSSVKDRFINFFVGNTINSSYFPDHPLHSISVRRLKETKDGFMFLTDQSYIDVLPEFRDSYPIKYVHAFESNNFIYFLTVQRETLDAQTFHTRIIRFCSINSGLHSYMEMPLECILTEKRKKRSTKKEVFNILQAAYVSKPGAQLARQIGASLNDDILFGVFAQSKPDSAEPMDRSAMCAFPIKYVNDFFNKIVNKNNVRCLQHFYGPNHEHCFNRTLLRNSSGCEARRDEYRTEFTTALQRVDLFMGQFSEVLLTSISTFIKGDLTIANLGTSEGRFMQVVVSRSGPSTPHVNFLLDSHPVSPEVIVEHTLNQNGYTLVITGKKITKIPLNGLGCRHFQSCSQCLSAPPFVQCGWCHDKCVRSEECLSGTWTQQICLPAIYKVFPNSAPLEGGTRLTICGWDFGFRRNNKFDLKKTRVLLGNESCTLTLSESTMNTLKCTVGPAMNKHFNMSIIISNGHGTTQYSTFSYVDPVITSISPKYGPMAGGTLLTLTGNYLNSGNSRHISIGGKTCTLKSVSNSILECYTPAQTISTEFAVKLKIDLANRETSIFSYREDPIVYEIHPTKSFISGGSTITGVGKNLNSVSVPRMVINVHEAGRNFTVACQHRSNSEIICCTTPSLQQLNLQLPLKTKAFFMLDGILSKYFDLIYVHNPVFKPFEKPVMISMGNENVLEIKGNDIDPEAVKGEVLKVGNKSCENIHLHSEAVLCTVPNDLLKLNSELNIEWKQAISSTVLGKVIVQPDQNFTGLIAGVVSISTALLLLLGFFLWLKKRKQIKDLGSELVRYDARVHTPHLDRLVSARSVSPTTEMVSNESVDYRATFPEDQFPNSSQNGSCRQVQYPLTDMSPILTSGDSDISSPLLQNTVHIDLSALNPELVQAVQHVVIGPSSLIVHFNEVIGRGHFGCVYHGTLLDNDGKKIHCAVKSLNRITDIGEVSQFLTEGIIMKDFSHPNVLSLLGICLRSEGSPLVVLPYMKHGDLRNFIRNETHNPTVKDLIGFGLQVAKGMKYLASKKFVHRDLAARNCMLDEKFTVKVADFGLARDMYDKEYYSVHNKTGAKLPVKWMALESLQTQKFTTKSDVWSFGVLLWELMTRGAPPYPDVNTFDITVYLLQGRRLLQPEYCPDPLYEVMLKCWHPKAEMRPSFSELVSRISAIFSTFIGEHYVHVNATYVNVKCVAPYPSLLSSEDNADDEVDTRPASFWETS

A word on the pIC50: it is the negative decadic logarithm of the IC50, by convention in mol/L. As for `Cn1cc(-c2cnc3ccc(CCn4nc(-c5cccc(OC(F)(F)F)c5)ccc4=O)cc3c2)cn1`, the pIC50 with Hs746T was 5.84; in data set [1], 7.69.

For the molecule `COC(=O)c1ccc(-c2ccc(=O)n(CCc3ccc4ncc(-c5cnn(C)c5)cc4c3)n2)cc1`, the pIC50 in the data set on Hs746T is 5.72; in data set [1], 8.12. For the molecule `CNC(=O)c1ccc(-c2ccc(=O)n(CCc3ccc4ncc(-c5cnn(C6CCOCC6)c5)cc4c3)n2)cc1C(F)(F)F`, the pIC50 in data set [2] was 6.78; in data set [1], 8.27.

In the case of `CNC(=O)c1ccc(-c2ccc(=O)n(CCc3ccc4ncc(N5CCC(N6CCOCC6)CC5)cc4c3)n2)cc1C(F)(F)F`, the pIC50 with Hs746T was 7.03; in data set [1] it was 7.88. Taken in the same sequence, the figures for `Cn1cc(-c2cnc3ccc(CCn4nc(-c5ccc(C(=O)O)cc5)ccc4=O)cc3c2)cn1` were 5.60 and 8.00. Taken in the same sequence, the figures for `Cn1cc(-c2cnc3ccc(CCn4nc(-c5cccc(Br)c5)ccc4=O)cc3c2)cn1` were 6.36 and 8.17. In the same order, the values of `Cn1cc(-c2cnc3ccc(CCn4nc(-c5ccc(C(=O)O)c(C(F)(F)F)c5)ccc4=O)cc3c2)cn1` are 5.37 and 8.24. As for `Cn1cc(-c2cnc3ccc(CCn4nc(-c5cccc([N+](=O)[O-])c5)ccc4=O)cc3c2)cn1`, the pIC50 is 6.48 in the data set with Hs746T and 7.82 in data set [1]. Turning to `Cn1cc(-c2cnc3ccc(CCn4nc(-c5cccc(F)c5)ccc4=O)cc3c2)cn1`, the pIC50 is 6.40 with Hs746T and 7.97 in data set [1]. Consider `CNC(=O)c1ccc(-c2ccc(=O)n(CCc3ccc4ncc(NCCN5CCCCC5)cc4c3)n2)cc1C(F)(F)F`, for which the pIC50 in the data set with Hs746T was 6.37; in data set [1] it was 7.58. Consider `CNC(=O)c1ccc(-c2ccc(=O)n(CCc3ccc4ncc(-c5cnn(C6CCNCC6)c5)cc4c3)n2)cc1C(F)(F)F`, for which the pIC50 in the data set with Hs746T was 7.70; in data set [1], 8.38. Regarding `Cn1cc(-c2cnc3ccc(CCn4nc(-c5cc(F)c(F)c(F)c5)ccc4=O)cc3c2)cn1`, the pIC50 is 6.64 with Hs746T and 8.12 in data set [1]. Taken in the same sequence, the figures for `CNC(=O)c1ccc(-c2ccc(=O)n(CCc3ccc4ncc(-c5cnn(C)c5)cc4c3)n2)cc1` were 6.86 and 8.40. In the same order, the values of `CNC(=O)c1ccc(-c2ccc(=O)n(/C=C/c3ccc4ncc(-c5cnn(C)c5)cc4c3)n2)cc1C(F)(F)F` are 5.52 and 7.45. In the same order, the values of `CNC(=O)c1ccc(-c2ccc(=O)n(CCOc3ccc4ncc(-c5cnn(C)c5)cc4c3)n2)cc1C(F)(F)F` are 6.35 and 7.10. Regarding `CNC(=O)c1ccc(-c2ccc(=O)n(CCc3ccc4ncc(-c5cn[nH]c5)cc4c3)n2)cc1C(F)(F)F`, the results for the pIC50 (in the data set with Hs746T; in data set [1]) were 6.97 and 8.17, respectively.

Consider `CNC(=O)c1ccc(-c2ccc(=O)n(CCc3ccc4ncc(N5CC6CNCC6C5)cc4c3)n2)cc1C(F)(F)F` (centres undefined), for which the pIC50 was 6.67 in the data set on Hs746T and 7.94 in data set [1]. As to `Cn1cc(-c2cnc3ccc(CCn4nc(-c5cccc(C#N)c5)ccc4=O)cc3c2)cn1`, the pIC50 is 6.89 with Hs746T and 7.98 in data set [1].

Regarding `O=c1ccc(-c2ccc(N3CCOCC3)cc2)nn1CCc1ccc2ncccc2c1`, the pIC50 in data set [1] was 6.68. `Cn1cc(-c2cnc3ccc(CCn4nc(-c5cccc(Cl)c5)ccc4=O)cc3c2)cn1`: the pIC50 in the data set with Hs746T was 6.52; in data set [1], 8.31. For the molecule `Cn1cc(-c2cnc3ccc(CCn4nc(-c5ccccc5F)ccc4=O)cc3c2)cn1`, the pIC50 was 6.20 in the data set on Hs746T and 7.59 in data set [1].

On to `CNC(=O)c1ccc(-c2ccc(=O)n(CCc3ccc4ncc(N5CCC(N6CCN(C)CC6)CC5)cc4c3)n2)cc1C(F)(F)F`, for which the figures for the pIC50 (in the data set with Hs746T; in data set [1]) were 7.32 and 7.86, respectively. In the case of `O=c1ccc(-c2ccccc2)nn1Cc1ccc2ncccc2c1`, the pIC50 in data set [1] is less than 5.00. Still for that read-out and setting: with `O=c1ccc(-c2ccccc2)nn1CCc1ccc2ncccc2c1` the figure was 5.70; with `Cn1cc(-c2cnc3ccc(CCn4nc(-c5ccccc5)ccc4=O)cc3c2)cn1`, 7.83. As for `Cn1cc(-c2cnc3ccc(Cn4nc(-c5ccccc5)ccc4=O)cc3c2)cn1`, the pIC50 in data set [1] is 6.86. `COc1cccc(-c2ccc(=O)n(CCc3ccc4ncc(-c5cnn(C)c5)cc4c3)n2)c1`: the figures for the pIC50 (with Hs746T; in data set [1]) were 5.87 and 7.83, respectively.

As for `CNC(=O)c1ccc(-c2ccc(=O)n(CCc3ccc4ncc(NCCN5CCOCC5)cc4c3)n2)cc1C(F)(F)F`, the pIC50 in the data set with Hs746T was 6.43; in data set [1], 7.74.

With `CNC(=O)c1ccc(-c2ccc(=O)n(CCc3ccc4ncc(-c5cnn(CCO)c5)cc4c3)n2)cc1C(F)(F)F`, the results for the pIC50 (in the data set with Hs746T; in data set [1]) were 6.94 and 8.55, respectively.

As for `Cc1ccc(-c2ccc(=O)n(CCc3ccc4ncc(-c5cnn(C)c5)cc4c3)n2)cc1`, the pIC50 in the data set on Hs746T was 6.55; in data set [1], 8.09. With `O=c1ccc(-c2ccccc2)nn1CCc1ccc2ncc(N3CCOCC3)cc2c1`, the pIC50 in data set [1] is 7.38. In the case of `Cn1cc(-c2ccc(-c3ccc(=O)n(CCc4ccc5ncccc5c4)n3)cc2)cn1`, the pIC50 in data set [1] was 6.18. Take `CNC(=O)c1ccc(-c2ccc(=O)n(CCc3ccc4ncc(N5CCN(C)CC5)cc4c3)n2)cc1C(F)(F)F`: the pIC50 in the data set on Hs746T was 6.70; in data set [1], 7.97. Taken in the same sequence, the figures for `CNC(=O)c1ccc(-c2ccc(=O)n(NC(=O)c3ccc4ncc(-c5cnn(C)c5)cc4c3)n2)cc1C(F)(F)F` were 5.00 and 5.64. Take `CNC(=O)c1ccc(-c2ccc(=O)n(CCc3ccc4ncc(N5CCC(N6CCCC6)CC5)cc4c3)n2)cc1C(F)(F)F`: the figures for the pIC50 (with Hs746T; in data set [1]) were 7.64 and 7.84, respectively. In the same order, the values of `COC(=O)c1ccc(-c2ccc(=O)n(CCc3ccc4ncc(-c5cnn(C)c5)cc4c3)n2)cc1C(F)(F)F` are 6.99 and 8.40. `O=c1ccc(-c2ccc(N3CCOCC3)cc2)nn1Cc1ccc2ncccc2c1`: in data set [1], the pIC50 is less than 5.00. `Cn1cc(-c2cnc3ccc(CCn4nc(-c5ccc(F)cc5)ccc4=O)cc3c2)cn1`: the pIC50 in the data set on Hs746T is 6.31; in data set [1], 7.74. Broadly, the Papp A→B is the apparent permeability from the apical to the basolateral side of a cell layer. With `O=C1NCCCCCn2cc(cn2)-c2cnc3ccc(cc3c2)CCn2nc(ccc2=O)-c2ccc1c(C(F)(F)F)c2`, the Papp A→B at 2 h, 10 µM in data set [3] stood at 0.29 ×10⁻⁶ cm/s. The pIC50 was 6.79 with Hs746T and 8.48 in data set [1]. Regarding `CNC(=O)c1ccc(-c2ccc(=O)n(CC(F)(F)c3ccc4ncc(-c5cnn(C)c5)cc4c3)n2)cc1C(F)(F)F`, the pIC50 in the data set with Hs746T is 7.41; in data set [1], 8.00.

In the case of `Cn1cc(-c2ccc(-c3ccc(=O)n(Cc4ccc5ncccc5c4)n3)cc2)cn1`, the pIC50 in data set [1] was less than 5.00. Regarding `CNC(=O)c1ccc(-c2ccc(=O)n(CCc3ccc4ncc(-c5cnn(C)c5)cc4c3)n2)cc1C(F)(F)F`, the figures for the negative logarithm of the IC50 (pIC50) (in the data set on Hs746T; in data set [1]) were 7.92 and 8.32, respectively. For the molecule `O=c1ccc(-c2ccccc2)nn1Cc1ccc2ncc(N3CCOCC3)cc2c1`, the pIC50 in data set [1] is 6.77. With `Cn1cc(-c2cnc3ccc(CCn4nc(-c5cccc(C(F)(F)F)c5)ccc4=O)cc3c2)cn1`, the results for the pIC50 (with Hs746T; in data set [1]) were 6.95 and 8.27, respectively. Taken in the same sequence, the figures for `CNC(=O)c1ccc(-c2ccc(=O)n(CCc3ccc4ncc(-c5cnn(CCN6CCOCC6)c5)cc4c3)n2)cc1C(F)(F)F` were 6.73 and 8.30. Taken in the same sequence, the figures for `Cn1cc(-c2cnc3ccc(CCn4nc(-c5ccc(F)c(F)c5)ccc4=O)cc3c2)cn1` were 6.15 and 7.88. Taken in the same sequence, the figures for `Cn1cc(-c2cnc3ccc(CCn4nc(-c5cccc(N)c5)ccc4=O)cc3c2)cn1` were 6.21 and 8.06. For the molecule `CNC(=O)c1ccc(-c2ccc(=O)n(CCc3ccc4ncc(-c5cnn(CCOC)c5)cc4c3)n2)cc1C(F)(F)F`, the pIC50 with Hs746T is 7.34; in data set [1] it was 8.13. In the same order, the values of `Cc1cccc(-c2ccc(=O)n(CCc3ccc4ncc(-c5cnn(C)c5)cc4c3)n2)c1` are 6.48 and 8.05.
